Results as given in patent US8900444B2, “Switchable hydrophilicity solvents and methods of use thereof” (Queen's University at Kingston, priority 2009, dated 2014).
Each block holds one molecule with its values, some of them ahead of it.

Key:
Assay type in all cases: physicochemical
[1] = Conversion of amine switchable hydrophilicity solvents back to hydrophobic form by heating (Example 5C); conditions: for loss of amine during heating (excessive volatility): 80 °C, approximately 60 minutes
Description: All of the amines identified as switchable hydrophilicity solvents in Example 5B (except N,N-dimethylbutylamine) were subjected to the following test. The vial containing the single-phase amine/water/CO2 mixture prepared in example 5B was heated in an oil bath at 80° C. for approximately 60 minutes. The mixture was magnetically stirred, and phase separation was observed throughout the course of heating. In the case of the N1,N1,N4,N4-tetraethylbutane-1,4-diamine/water/CO2 mixture, 5 hours of heating was required to switch it back to its hydrophobic form.

[2] = Miscibility of amines with water in the presence of CO2 (Example 5B); conditions: CO2 bubbled through amine/water mixture for at least one hour
Description: All of the amines that formed a biphasic mixture in Example 5A were subjected to the following test. Carbon dioxide was bubbled through the amine/water biphasic mixture, via a syringe needle, for at least one hour. Care was taken to regulate the rate of the CO2 bubbling, so as not to cause evaporation of the amine. The liquid-liquid interface was observed over the course of CO2 bubbling, and a photo was taken after 60 minutes.

[3] = Miscibility of amines with water in the absence of CO2 (Example 5A); conditions: 1 mL amine + 1 mL H2O, room temperature, visual
Description: 1 mL of an appropriate amine was combined with 1 mL of H2O in a 4 mL vial, with the 1 and 2 mL volume lines marked. The vial was manually shaken and left to settle at room temperature. After the mixture settled, the number of phases was observed visually. This procedure was performed for all of the screened amines.

[4] = Separation of switchable solvent from soybean oil with CO2/carbonated water (Examples 2A, 2C)
Description: A 4 mL vial was prepared containing 1.0 mL D2O, 0.5 mL BA and 0.5 mL soybean oil. The vial was shaken thoroughly and allowed to settle, showing a 1.0 mL upper layer (soybean oil and BA) and a 1.0 mL lower layer (D2O). ^1H NMR samples (50 μL) were withdrawn from each layer and mixed with methanol-d4 (0.5 mL) containing a dioxane internal standard (51.5 mM). Another sample was withdrawn from the upper layer for ^1H NMR analysis in CDCl3, because soybean oil is not miscible with methanol. The same volume was discarded from the bottom layer to maintain the initial ratio.
CO2 was bubbled through the system for 1.5 h, at which time the top layer appeared to have halved in volume. Using the same system, ^1H NMR analysis was again conducted on both layers, the bottom layer in methanol-d4 and the top layer in CDCl3.
A 1.0 mL portion of the bottom layer was withdrawn and transferred to a new 4.0 mL vial. A magnetic stirrer was added and the vial was stirred at 80° C. for 1 h. Samples were withdrawn from both layers for ^1H NMR analysis in methanol-d4 with reference to the dioxane internal standard.
The switching behavior of BA in the presence of soybean oil was studied qualitatively and by ^1H NMR spectroscopy as shown in FIG. 11. The top spectrum is that of soy oil. The middle spectrum is that of the upper (organic) phase after the mixing of the BA, soy oil and D2O. This upper phase comprises soy oil and BA. The bottom spectrum is that of the upper (organic) phase after the addition of the CO2 trigger and comprises predominantly soy oil and any residual solvent.
The most informative ^1H NMR spectra in this experiment were those showing the separation of the soy oil and BA. Based on the integration of the peak corresponding to BA at 3.17 ppm in these spectra, 96% of the amidine was removed from the upper soybean oil layer after switching to its hydrophilic BAB form. Other spectra (not shown), collected in methanol-d4 with a dioxane internal standard, confirmed the switching behavior presented in Example 1 above, showing 11% retention of BA in the aqueous phase after heating.
It was possible to remove a high percentage of N1,N1,N4,N4-tetraethylbutane-1,4-diamine from the soybean oil be mixing with carbonated water. The percentage removal was 98.65%. In contrast, 96% of BA was removed from the soybean oil.

[5] = Visual and NMR study of amine switchable hydrophilicity solvents (Example 6)
Description: The following amines were evaluated in this series of experiments: N-ethylpiperidine, N,N-dimethylcyclohexylamine, and N,N-dimethylhexylamine. The sequence of experiments is described for one amine but was performed for all three. The visual observations are described in Table 3. 1,4-Dioxane was used as an internal standard for NMR spectroscopy.
Amine (1 mL) was combined with D2O (1 mL) in a 10 mL graduated cylinder, which was then capped with a rubber septum. The cylinder was manually shaken and left to settle at room temperature, after which the mixture appeared as two transparent liquid phases. For each amine, this procedure was simultaneously conducted in 3 identical cylinders. From the aqueous (bottom) layer of one of the three cylinders, three 250 μL samples were withdrawn, combined with equal volumes of D2O and dioxane internal standard, and analyzed by ^1H NMR spectroscopy. The spectra were consistent with the amine in the aqueous phase being in its neutral form. The graduated cylinder from which the samples were taken was discarded.
For each of two remaining graduated cylinders, carbon dioxide was bubbled through the amine/water biphasic mixture, via a syringe needle, for at least one hour. Care was taken to regulate the rate of the CO2 bubbling, so as not to cause significant evaporation of the amine. The mixture changed from a biphasic liquid mixture to a single homogeneous liquid phase. From one of the two graduated cylinders, a 300 μL sample of the homogenous liquid phase was withdrawn and mixed with an equal volume of D2O and a known quantity of dioxane internal standard. […] The graduated cylinder from which the sample was taken was discarded.
The remaining graduated cylinder, containing the single-phase amine/water/CO2 mixture prepared above, was heated in an oil bath at 80 deg. C for 1 hour. Phase separation was observed. Three 250 μL samples of the aqueous (bottom) layer were withdrawn, combined with equal volumes of D2O and a known quantity of dioxane internal standard, and analyzed by NMR spectroscopy.

[6] = CO2 bubbling time to phase merge with and without piperazine; conditions: 5 mL amine + 5 mL water, room temperature, CO2 100 mL/min
Description: In some embodiments, addition of a small amount of piperazine further increases the rate of conversion of a switchable hydrophilicity solvent to its ionic form. […] In the presence of an absorption activator, specifically 10 wt % piperazine, the time of CO2 bubbling to phase merge was only 20 minutes. Although not experimentally shown, the inventors expect that piperazine would have a similar absorption activating effect for compounds of formula (1). A similar improvement in CO2 capture for aqueous solutions of tertiary amines was reported by Dubois (Chem. Eng. Tech. 32(5): 710 (2009)).

[7] = Qualitative switchability assessment of BA (Example 1B); conditions: 80 °C oil bath, stirred
Description: The BA amidine's ability to act as a switchable hydrophilicity solvent for the separation of a selected substance is dependent on its ability to switch from the hydrophobic form to a hydrophilic form. This is achieved by adding water to provide an aqueous layer and decreasing the pH of the aqueous layer, namely by dissolving CO2 in the aqueous layer. When carbon dioxide dissolves in water, it forms carbonic acid with pKa1 of 6.4. The resultant dissociation is sufficient to protonate a hydrophobic amidine, causing it to become charged forming a hydrophilic amidinium bicarbonate (BAB). In this preliminary switching study, the amidine's ability to act as a base and its ability to switch hydrophilicity were studied.
Switching behavior was studied for BA over various periods of time. A glass vial (4 mL) was prepared, containing distilled water (1.0 mL) and BA amidine (0.5 mL).
CO2 was bubbled through the vial for roughly 30 minutes, until the top layer had disappeared showing that a hydrophilic solution of BAB in water had been formed.
A magnetic stirrer was placed in the vial. The vial was suspended in an 80° C. oil bath and stirred. The vial was intermittently removed from the bath and monitored for the presence of a second layer after 20, 50 and 75 minutes. The formation of a second layer (hydrophobic BA) was noted after 20 minutes in the oil bath.

[8] = Polarity study with solvatochromatic dye Nile Red (Example 3); conditions: water-saturated BA or aqueous solution of BAB
Description: The maximum wavelength of absorption, λmax, of a switchable hydrophilicity solvent, N,N,N′-tributylpentanamidine (BA), was analyzed in its hydrophobic and hydrophilic forms using the solvatochromatic dye, Nile Red. A 1 Dram vial was prepared containing 1 mL of distilled water to which 1 mL of BA was added. […] This ensured saturation of the BA phase with water. The top phase comprising the BA liquid was pipetted into a quartz cuvette (Semi-Micro Cells, Self Masking Black Walls Spectrosil® Quartz, Starna Cells, Atascadero, Calif., USA) and 1 mg of Nile Red was added, to provide a bright orange-magenta solution. The ultraviolet absorbance spectrum was acquired on an Agilent Technologies ultraviolet/visible spectrometer 50-60 Hz with UV-Visible Chemstation software. The λmax was 510 nm. Distilled water (1.0 mL) was then added to the quartz cuvette and carbon dioxide was slowly bubbled into the mixture for 1 hour to switch the BA to its ionic form, N,N,N′-tributylpentanamidinium bicarbonate (BAB), after which the homogenous mixture turned purple. The ultraviolet absorbance spectrum of the aqueous solution of the dye and ionic salt was then acquired as discussed in the previous paragraph. The λmax was 570 nm.

[9] = Quantitative switching study of BA by 1H NMR (Example 1D)
Description: A methanol-d4 solution was prepared containing a sodium acetate internal standard (48.8 mM).
Two 4 mL glass vials containing 1.0 mL D2O and 0.5 mL BA were prepared and shaken. A 50 μL sample was withdrawn from each layer of one vial and combined with 0.50 mL of the sodium acetate standard solution in each of two NMR tubes: the top layer (BA) in a first tube; the bottom layer (aqueous) in a second tube.
Carbon dioxide was bubbled through the unsampled vial until the BA had completely converted to BAB, as evidenced by the disappearance of the top layer. The pH of the solution was measured using pH paper to be approximately 8-9. A 50 μL sample was withdrawn from the BAB/D2O solution and added to 0.50 mL of the sodium acetate standard solution in a third NMR tube.
The 4.0 mL vial from which the last NMR sample was withdrawn was then heated at 80° C. for 1 h and stirred by a magnetic stirrer. Bubbles of CO2 were observed escaping from the solution and a top layer, hydrophobic amidine, appeared. After cooling the vial to room temperature, a 50 μL sample was withdrawn from each layer and combined with 0.50 mL of the sodium acetate standard in two NMR tubes: the top layer (BA) in a fourth tube; the bottom layer (aqueous) in a fifth tube.
The NMR spectra of all five samples are shown in FIG. 10 with the first to fifth tubes shown from top to bottom. […] In addition, using the ‘c’ and ‘d’ protons provided stronger signals, to improve accuracy. Based on the strength of the ‘c’ and ‘d’ signals, 11% of the BA remained in the aqueous phase as BAB after the experiment
Using dioxane as the internal standard gave the same results (11% BAB retention in the aqueous phase) as sodium acetate.
The same experiment was repeated except that the temperature of the heating of the 4.0 mL vial was increased from 80° C. to 90° C. A similar retention of BAB in the aqueous phase (12%) was observed.

[10] = listed as N,N-dimethyl-N-cyclohexylamine

loss of amine during heating (excessive volatility) [1]: loss of amine | miscibility with water after CO2 treatment [2]: single-phase | miscibility with water after CO2 treatment ([2]; listed as N,N,N-triethylamine): became water-miscible | miscibility with water under air (absence of CO2) [3]: biphasic | miscibility with water under air (absence of CO2) ([3]; listed as N,N,N-triethylamine): immiscible with water
SMILES: CCN(CC)CC [triethylamine]

heating time required to switch back to hydrophobic form ([1]; amine/water/CO2 mixture, oil bath 80 °C, stirred): 5 h | solvent removed from soybean oil after switching to hydrophilic form ([4]; CO2 / carbonated water): 98.65% | miscibility with soybean oil ([4]; neutral hydrophobic form): miscible with soybean oil | miscibility with water after CO2 treatment [2]: single-phase | miscibility with water after CO2 treatment ([2]; listed as Et2NCH2CH2CH2CH2NEt2): miscible | miscibility with water under air (absence of CO2) [3]: biphasic | miscibility with water under air (absence of CO2) ([3]; listed as Et2NCH2CH2CH2CH2NEt2): immiscible
SMILES: CCN(CC)CCCCN(CC)CC [N1,N1,N4,N4-tetraethylbutane-1,4-diamine]

loss of amine during heating (excessive volatility) [1]: loss of amine | miscibility with water after CO2 treatment [2]: single-phase | miscibility with water after CO2 treatment ([2]; listed as diethylbutylamine): became water-miscible | miscibility with water under air (absence of CO2) [3]: biphasic | miscibility with water under air (absence of CO2) ([3]; listed as diethylbutylamine): immiscible with water
SMILES: CCCCN(CC)CC [N,N-diethylbutylamine]

SMILES: CN(C)C1CCCCC1 [N,N-dimethylcyclohexylamine]
time of CO2 bubbling to form one homogeneous solution ([5]; 1 mL amine + 1 mL D2O): took 45 min to form one | number of layers formed without CO2 ([5]; 1 mL amine + 1 mL D2O, room temperature): formed 2 clear, | time of heating to separate into 2 layers ([5]; oil bath 80 deg. C): after 30 min, solution has | volume of bottom (aqueous) layer after heating ([5]; oil bath 80 deg. C): clear & colorless, with volume of 1 mL, | volume of top layer after heating ([5]; oil bath 80 deg. C): oily, with volume of 0.8 mL | time of CO2 bubbling to phase merge ([6]; 10 wt % piperazine): 20 min | time of CO2 bubbling for phase merge ([6]; absence of piperazine): 35 min | miscibility with water after CO2 treatment [2]: single-phase | miscibility with water after CO2 treatment [2, 10]: became water-miscible | miscibility with water under air (absence of CO2) [3]: biphasic | miscibility with water under air (absence of CO2) [3, 10]: immiscible with water

SMILES: CCCCN=C(CCCC)N(CCCC)CCCC.O=C(O)O [BAB, N,N,N′-tributylpentanamidinium bicarbonate]
heating time to formation of second (hydrophobic) layer [7]: 20 min | maximum wavelength of absorption (λmax) of Nile Red [8]: 570 nm | BAB retention in the aqueous phase after heating ([9]; 80 °C, 1 h, dioxane internal standard): 11% | retention of BAB in the aqueous phase after heating ([9]; 90 °C): 12% | pH of solution after complete conversion with CO2 ([9]; BAB/D2O solution, pH paper): 8-9 | BAB ionic form converted back to BA ([9]; after heating for 1 hour): > 90%
